Key:
barnyardgrass [1] = assay: Test A pre-/postemergence herbicide test; assay type: in vivo, Echinochloa crus-galli; settings: for Barnyardgrass plant response rating: Preemergence, visual rating on 0 to 100 scale (0 no effect, 100 complete control)
Method in brief: (§1)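 Both application timings used compounds in a non-phytotoxic solvent plus surfactant. Pre-emergence: soil sprayed directly after seeding into loam/sand. Post-emergence: foliage of 2–10 cm seedlings (1–2 leaves) sprayed. Injury rated ~10 days later, 0–100.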

wheat = assay: Test A pre-/postemergence herbicide test; assay type: in vivo, Triticum aestivum; settings: for Wheat plant response rating: Preemergence, visual rating on 0 to 100 scale (0 no effect, 100 complete control)
Method in brief: as §1

crabgrass, large = assay: Test A pre-/postemergence herbicide test; assay type: in vivo, Digitaria sanguinalis; settings: for Crabgrass, Large plant response rating: Preemergence, visual rating on 0 to 100 scale (0 no effect, 100 complete control)
Method in brief: as §1

rice = assay: Test C flooded paddy test; assay type: in vivo, Oryza sativa; settings: Flood
Method in brief: (§2)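 Visual injury scored against controls after 13 to 15 days in the greenhouse, using 0 (no effect) to 100 (complete control). Test compounds went straight into paddy water held 3 cm above the soil surface on 2-leaf-stage plants, with that flood depth maintained for the whole test.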

barnyardgrass [2] = assay: Test C flooded paddy test; assay type: in vivo, Echinochloa crus-galli; settings: Flood
Method in brief: as §2

velvetleaf = assay: Test A pre-/postemergence herbicide test; assay type: in vivo, Abutilon theophrasti; settings: for Velvetleaf plant response rating: Preemergence, visual rating on 0 to 100 scale (0 no effect, 100 complete control)
Method in brief: as §1

corn = assay: Test A pre-/postemergence herbicide test; assay type: in vivo, Zea mays; settings: for Corn plant response rating: Preemergence, visual rating on 0 to 100 scale (0 no effect, 100 complete control)
Method in brief: as §1

pigweed = assay: Test A pre-/postemergence herbicide test; assay type: in vivo, Amaranthus retroflexus; settings: for Pigweed plant response rating: Preemergence, visual rating on 0 to 100 scale (0 no effect, 100 complete control)
Method in brief: as §1

sedge, umbrella = assay: Test C flooded paddy test; assay type: in vivo, Cyperus difformis; settings: Flood
Method in brief: as §2

morningglory = assay: Test A pre-/postemergence herbicide test; assay type: in vivo, Ipomoea spp.; settings: for Morningglory plant response rating: Preemergence, visual rating on 0 to 100 scale (0 no effect, 100 complete control)
Method in brief: as §1

ducksalad = assay: Test C flooded paddy test; assay type: in vivo, Heteranthera limosa; settings: Flood
Description: Plant species in the flooded paddy test consisted of rice (Oryza sativa), sedge, umbrella (small-flower umbrella sedge, Cyperus difformis), ducksalad (Heteranthera limosa), and barnyardgrass (Echinochloa crus-galli) grown to the 2-leaf stage for testing. At time of treatment, test pots were flooded to 3 cm above the soil surface, treated by application of test compounds directly to the paddy water, and then maintained at that water depth for the duration of the test. Treated plants and controls were maintained in a greenhouse for 13 to 15 days, after which time all species were compared to controls and visually evaluated. Plant response ratings, summarized in Table C, are based on a scale of 0 to 100 where 0 is no effect and 100 is complete control. A dash (-) response means no test result.

giant foxtail = assay: Test A pre-/postemergence herbicide test; assay type: in vivo, Setaria faberii; settings: for Foxtail, Giant plant response rating: Preemergence, visual rating on 0 to 100 scale (0 no effect, 100 complete control)
Method in brief: as §1

[3] = Postemergence, 125 g ai/ha, 0 to 100 scale, 0 no effect, 100 complete control
[4] = Postemergence, 500 g ai/ha, 0 to 100 scale (0 no effect, 100 complete control)
[5] = preemergence, 500 g ai/ha, 0 to 100 scale (0 no effect, 100 complete control)
[6] = preemergence, 500 g ai/ha, 0 to 100 scale
[7] = 31 g ai/ha, scale of 0 to 100 where 0 is no effect and 100 is complete control, 13 to 15 days
[8] = 62 g ai/ha, scale of 0 to 100 where 0 is no effect and 100 is complete control, 13 to 15 days
[9] = 125 g ai/ha, scale of 0 to 100 where 0 is no effect and 100 is complete control, 13 to 15 days

CC1NC(=O)C(C(=O)Nc2ccccc2C(F)(F)F)C1c1ccc(F)c(F)c1 (mixture of isomers) [Compound 10]
Plant response rating, Barnyardgrass (barnyardgrass [1]; [3]): 0 | Plant response rating, Barnyardgrass (barnyardgrass [1]; [4]): 40 | Barnyardgrass plant response rating (barnyardgrass [1]; 125 g ai/ha): 0 | Plant response rating, Barnyardgrass (barnyardgrass [1]; [5]): 40 | Plant response rating, Wheat (wheat; [3]): 0 | Plant response rating, Wheat (wheat; [4]): 0 | Wheat plant response rating (wheat; 125 g ai/ha): 0 | Plant response rating, Wheat (wheat; [6]): 0 | Plant response rating, Crabgrass, Large (crabgrass, large; [3]): 20 | Plant response rating, Crabgrass, Large (crabgrass, large; [4]): 60 | Crabgrass, Large plant response rating (crabgrass, large; 125 g ai/ha): 90 | Plant response rating, Crabgrass, Large (crabgrass, large; [6]): 90 | Plant response rating, Rice (rice; [7]): 0 | Plant response rating, Rice (rice; [8]): 0 | Plant response rating, Rice (rice; [9]): 0 | Plant response rating, Rice (rice; 250 g ai/ha, scale 0 to 100): 0 | Plant response rating, Barnyardgrass (barnyardgrass [2]; [7]): 0 | Plant response rating, Barnyardgrass (barnyardgrass [2]; [8]): 0 | Plant response rating, Barnyardgrass (barnyardgrass [2]; [9]): 0 | Plant response rating, Barnyardgrass (barnyardgrass [2]; 250 g ai/ha, scale 0 to 100): 0 | Plant response rating, Velvetleaf (velvetleaf; [3]): 0 | Plant response rating, Velvetleaf (velvetleaf; [4]): 0 | Velvetleaf plant response rating (velvetleaf; 125 g ai/ha): 0 | Plant response rating, Velvetleaf (velvetleaf; [6]): 0 | Plant response rating, Corn (corn; [3]): 0 | Plant response rating, Corn (corn; [4]): 0 | Corn plant response rating (corn; 125 g ai/ha): 0 | Plant response rating, Corn (corn; [6]): 0 | Plant response rating, Pigweed (pigweed; [3]): 0 | Plant response rating, Pigweed (pigweed; [4]): 0 | Pigweed plant response rating (pigweed; 125 g ai/ha): 0 | Plant response rating, Pigweed (pigweed; [6]): 0 | Plant response rating, Sedge, Umbrella (sedge, umbrella; [7]): 0 | Plant response rating, Sedge, Umbrella (sedge, umbrella; [8]): 0 | Plant response rating, Sedge, Umbrella (sedge, umbrella; [9]): 0 | Plant response rating, Sedge, Umbrella (sedge, umbrella; 250 g ai/ha, scale 0 to 100): 0 | Plant response rating, Morningglory (morningglory; [3]): 0 | Plant response rating, Morningglory (morningglory; [4]): 0 | Morningglory plant response rating (morningglory; 125 g ai/ha): 0 | Plant response rating, Morningglory (morningglory; [6]): 0 | Plant response rating, Ducksalad (ducksalad; [7]): 0 | Plant response rating, Ducksalad (ducksalad; [8]): 0 | Plant response rating, Ducksalad (ducksalad; [9]): 0 | Plant response rating, Ducksalad (ducksalad; 250 g ai/ha, scale 0 to 100): 0 | Plant response rating, Foxtail, Giant (giant foxtail; [3]): 0 | Plant response rating, Foxtail, Giant (giant foxtail; [4]): 30 | Foxtail, Giant plant response rating (giant foxtail; 125 g ai/ha): 60 | Plant response rating, Foxtail, Giant (giant foxtail; [6]): 90

O=C1NCC(c2cccc(F)c2)C1C(=O)Nc1ccccc1F (racemic) [Compound 1]
Plant response rating, Barnyardgrass (barnyardgrass [1]; [3]): 50 | Plant response rating, Barnyardgrass (barnyardgrass [1]; [4]): 80 | Barnyardgrass plant response rating (barnyardgrass [1]; 125 g ai/ha): 30 | Plant response rating, Barnyardgrass (barnyardgrass [1]; [5]): 90 | Plant response rating, Wheat (wheat; [4]): 0 | Wheat plant response rating (wheat; 125 g ai/ha): 0 | Plant response rating, Wheat (wheat; [6]): 0 | Plant response rating, Crabgrass, Large (crabgrass, large; [3]): 30 | Plant response rating, Crabgrass, Large (crabgrass, large; [4]): 80 | Crabgrass, Large plant response rating (crabgrass, large; 125 g ai/ha): 90 | Plant response rating, Crabgrass, Large (crabgrass, large; [6]): 90 | Plant response rating, Rice (rice; [7]): 0 | Plant response rating, Rice (rice; [8]): 0 | Plant response rating, Rice (rice; [9]): 0 | Plant response rating, Rice (rice; 250 g ai/ha, scale 0 to 100): 0 | Plant response rating, Barnyardgrass (barnyardgrass [2]; [7]): 0 | Plant response rating, Barnyardgrass (barnyardgrass [2]; [8]): 0 | Plant response rating, Barnyardgrass (barnyardgrass [2]; [9]): 0 | Plant response rating, Barnyardgrass (barnyardgrass [2]; 250 g ai/ha, scale 0 to 100): 0 | Plant response rating, Velvetleaf (velvetleaf; [4]): 0 | Velvetleaf plant response rating (velvetleaf; 125 g ai/ha): 0 | Plant response rating, Velvetleaf (velvetleaf; [6]): 0 | Plant response rating, Corn (corn; [3]): 0 | Plant response rating, Corn (corn; [4]): 0 | Corn plant response rating (corn; 125 g ai/ha): 0 | Plant response rating, Corn (corn; [6]): 20 | Plant response rating, Pigweed (pigweed; [4]): 0 | Pigweed plant response rating (pigweed; 125 g ai/ha): 0 | Plant response rating, Pigweed (pigweed; [6]): 0 | Plant response rating, Sedge, Umbrella (sedge, umbrella; [7]): 0 | Plant response rating, Sedge, Umbrella (sedge, umbrella; [8]): 0 | Plant response rating, Sedge, Umbrella (sedge, umbrella; [9]): 0 | Plant response rating, Sedge, Umbrella (sedge, umbrella; 250 g ai/ha, scale 0 to 100): 0 | Plant response rating, Morningglory (morningglory; [4]): 0 | Morningglory plant response rating (morningglory; 125 g ai/ha): 0 | Plant response rating, Morningglory (morningglory; [6]): 0 | Plant response rating, Ducksalad (ducksalad; [7]): 0 | Plant response rating, Ducksalad (ducksalad; [8]): 0 | Plant response rating, Ducksalad (ducksalad; [9]): 0 | Plant response rating, Ducksalad (ducksalad; 250 g ai/ha, scale 0 to 100): 0 | Plant response rating, Foxtail, Giant (giant foxtail; [3]): 20 | Plant response rating, Foxtail, Giant (giant foxtail; [4]): 60 | Foxtail, Giant plant response rating (giant foxtail; 125 g ai/ha): 70 | Plant response rating, Foxtail, Giant (giant foxtail; [6]): 90

From US10294202B2, “Pyrrolidinones as herbicides” (FMC Corporation, priority 2013, dated 2019)
